{"source": "patent US20260083722A1", "about": "“BIFUNCTIONAL DEGRADERS COMPRISING ELECTROPHILIC PROTACS THAT ENGAGE DCAF1 AND PHARMACEUTICAL COMPOSITIONS COMPRISING THE SAME” (THE SCRIPPS RESEARCH INSTITUTE, priority 2022, published 2026)", "key": {"DCAF1_C1113": {"target": "T1, DCAF1_C1113 (Homo sapiens, UniProt Q9Y4B6)", "T1 construct": "endogenous in cells; host or cells: primary human T cells", "experiment": "cysteine-directed MS-ABPP (IA-DTB probe) in primary human T cells", "assay_type": "cell-based", "conditions": "3 h; for reactivity with DCAF1_C1113: 20 μM compound", "protocol": "(A) Structures of a set of stereochemically defined azetidine acrylamides MY-1A (1), MY-1B (2), MY-3A (3), and MY-3B (4). (B) Heat map showing cysteines that were substantially engaged by azetidine acrylamides (>75% by at least one compound) in human T cells (20 μM compound, 3 h) as determined by MS-ABPP using an iodoacetamide desthiobiotin (IA-DTB) probe following previously described methods^21. Red arrow marks DCAF1_C1113. (C) MS-ABPP quantification of IA-DTB labeling of DCAF1_C1113 from T cells treated with the indicated azetidine acrylamides (20 μM, 3 h) relative to control T cells treated with DMSO. (D) MS-ABPP quantification of IA-DTB labeling of the indicated cysteines in DCAF1 from T cells treated with MY-1B (20 μM, 3 h) relative to control T cells treated with DMSO. For (B-D), data represent average values (for C and D, average values±SEM) from three independent experiments each performed with two technical replicates, where cysteines were required to have been quantified in at least two experiments for interpretation.\nGuided by the principles of diversity-oriented synthesis^22, specifically the design of compounds with densely functionalized and entropically constrained sp^3-rich cores bearing one or more stereocenters, we generated a set of stereoisomeric azetidine acrylamides (FIG. 1A) and screened these compounds by cysteine-directed MS-ABPP^23-26 in primary human T cells. Across more than 10000 quantified cysteines, these experiments uncovered several azetidine acrylamide-cysteine interactions (FIG. 1B and Dataset S1), including the stereo-(FIG. 1B, C) and site-(FIG. 1D) selective engagement of C1113 on the E3 ligase substrate adaptor DCAF1. […] Other quantified cysteines in DCAF1 were unaffected by MY-1B (FIG. 1D)."}, "[1]": {"target": "T2, recombinant DCAF1-WT (a.a.'s 1046-1396) (Homo sapiens, UniProt Q9Y4B6)", "T2 construct": "form of DCAF1 containing the WD40 domain (amino acids (a.a.'s) 1046-1396); made in house", "T2 sequence (Q9Y4B6 1046-1396)": "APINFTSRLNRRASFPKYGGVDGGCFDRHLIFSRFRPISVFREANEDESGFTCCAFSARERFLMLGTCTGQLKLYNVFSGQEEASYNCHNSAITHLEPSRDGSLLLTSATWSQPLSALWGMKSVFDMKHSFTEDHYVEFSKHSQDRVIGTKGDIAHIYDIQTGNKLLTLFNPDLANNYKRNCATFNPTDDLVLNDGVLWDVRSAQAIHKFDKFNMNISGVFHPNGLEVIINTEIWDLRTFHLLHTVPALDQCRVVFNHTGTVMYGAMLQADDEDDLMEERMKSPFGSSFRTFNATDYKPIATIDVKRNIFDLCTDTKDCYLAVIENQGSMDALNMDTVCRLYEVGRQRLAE", "T2 sequence (Q16531 whole entry partner, the tested form may be a part)": "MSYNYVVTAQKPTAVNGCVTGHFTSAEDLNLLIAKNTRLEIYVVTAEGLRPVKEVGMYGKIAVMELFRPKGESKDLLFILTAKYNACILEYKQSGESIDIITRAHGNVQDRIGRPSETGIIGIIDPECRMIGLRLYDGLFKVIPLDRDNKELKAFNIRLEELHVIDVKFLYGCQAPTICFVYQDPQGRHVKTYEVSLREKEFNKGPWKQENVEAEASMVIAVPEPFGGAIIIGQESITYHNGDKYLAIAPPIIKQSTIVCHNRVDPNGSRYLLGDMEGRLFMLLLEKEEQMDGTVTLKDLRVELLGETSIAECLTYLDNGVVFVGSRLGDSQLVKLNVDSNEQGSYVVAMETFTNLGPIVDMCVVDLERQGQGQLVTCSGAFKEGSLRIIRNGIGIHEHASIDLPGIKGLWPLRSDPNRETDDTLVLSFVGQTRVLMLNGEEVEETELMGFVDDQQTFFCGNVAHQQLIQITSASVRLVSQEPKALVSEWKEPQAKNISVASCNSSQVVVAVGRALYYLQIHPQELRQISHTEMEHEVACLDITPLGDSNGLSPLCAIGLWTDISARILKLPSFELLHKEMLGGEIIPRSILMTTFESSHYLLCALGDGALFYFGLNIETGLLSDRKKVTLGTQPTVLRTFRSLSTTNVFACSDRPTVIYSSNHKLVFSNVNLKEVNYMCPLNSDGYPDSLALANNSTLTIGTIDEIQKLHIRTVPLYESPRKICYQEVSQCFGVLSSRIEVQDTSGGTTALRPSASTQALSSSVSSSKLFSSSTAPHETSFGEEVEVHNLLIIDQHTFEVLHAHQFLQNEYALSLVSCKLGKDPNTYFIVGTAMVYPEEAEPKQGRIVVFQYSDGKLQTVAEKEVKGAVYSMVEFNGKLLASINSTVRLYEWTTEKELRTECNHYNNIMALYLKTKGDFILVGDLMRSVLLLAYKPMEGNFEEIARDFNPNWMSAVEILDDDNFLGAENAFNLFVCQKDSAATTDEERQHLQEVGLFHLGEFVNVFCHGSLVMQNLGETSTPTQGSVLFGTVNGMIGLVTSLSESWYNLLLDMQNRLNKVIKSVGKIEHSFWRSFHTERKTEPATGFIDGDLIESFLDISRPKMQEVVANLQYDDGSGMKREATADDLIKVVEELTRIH", "experiment": "gel-ABPP with recombinant purified DCAF1-WT doped into HEK293T cell proteome", "assay_type": "binding", "conditions": "for block of MY-11B labeling of recombinant DCAF1 by pre-treatment: 6.25-100 μM, MY-11B 25 μM, 1 h", "source_text": "FIG. 2 that azetidine acrylamides stereo- and site-selectively engage recombinant DCAF1_C1113. (A) Domain map of DCAF1 with the region used for recombinant protein studies marked in a bracket (a.a.'s 1046-1396) and C1113 highlighted in red. (B) Crystal structure of a DCAF1-Vpx complex (pdb: 5AJA). DCAF1 (a.a.'s 1046-1396) is shown in cyan, Vpx is shown in yellow, and C1113, which is located at the DCAF1-Vpx interface is shown in red. (C) Structures of alkyne-modified azetidine acrylamides MY-11A (5) and MY-11B (6). (D) Gel-ABPP showing the concentration-dependent reactivity of MY-11A and MY-11B (1 h) reactivity with recombinant, purified DCAF1-WT or the DCAF1-C1113A mutant (0.06 μg/μL of DCAF1 protein per sample) doped into HEK293T cell proteome (1 μg/μL). MY-11A/B labeling of proteins was visualized by CuAAC conjugation to an azide-rhodamine tag followed by SDS-PAGE and in-gel fluorescence scanning. Results are from a single experiment representative of two independent experiments. (E) Gel-ABPP showing the concentration-dependent effects of MY-1A and MY-1B on MY-11B reactivity with DCAF1-WT. Samples were treated with MY-1A/B for 2 h, followed by MY-11B (25 μM, 1 h) and analyzed as described in (D). Left, quantification of data presented as mean values±SEM from two independent experiments. Right, representative gel-ABPP results. (D, E) Lower images are Coomassie blue-stained gels corresponding to ABPP gels shown in upper images.\n(A) Structures of candidate electrophilic PROTACs YT41R (7), YT41S (8), YT47R (9), and YT47S (10). (B) Gel-ABPP showing the concentration-dependent effects of YT41R and YT47R on MY-11B reactivity with DCAF1-WT protein (0.06 μg/μL of DCAF1 protein per sample) doped into HEK293T cell proteome (1 μg/μL). Also shown are the effects of YT41S and YT47S tested at a single concentration (100 μM). Samples were treated with heterobifunctional compounds for 2 h, followed by MY-11B (25 μM, 1 h) and analyzed as described in FIG. 2D. Left, representative gel-ABPP results. Lower image is Coomassie blue-stained gel corresponding to ABPP gel shown in upper image. Right, quantification of data presented as mean values±SEM from two independent experiments.\nDCAF1 is a multi-domain substrate receptor for CRL4 ligases (FIG. 2A) that has diverse physiological and disease functions, including being co-opted by the HIV-2 virus to promote degradation of the antiviral host protein SAMHD1^27-28. […] We verified the stereo- and site-selective engagement of DCAF1_C1113 by azetidine acrylamides using alkynylated analogues of MY-1A and MY-1B (MY-11A (5) and MY-11B (6), respectively; FIG. 2C). For these experiments, we doped into HEK293T cell lysates a recombinantly expressed and purified form of DCAF1 containing the WD40 domain (amino acids (a.a.'s) 1046-1396), in complex with the CRL4 adaptor protein DDB1^31, and exposed these samples to varying concentrations of MY-11A or MY-11B. After 1 h, we assessed MY-11A and MY-11B engagement of DCAF1 by copper-catalyzed azide-alkyne cycloaddition (CuAAC)^32 with an azide-rhodamine reporter tag followed by SDS-PAGE and in-gel fluorescence scanning^33. […] We used gel-ABPP to quantify an in vitro target engagement value (TE50) of approximately 25 μM (95% C.I.=13-38 μM) for MY-1B labeling of DCAF1 (FIG. 2E, left)."}, "HA-FKBP12": {"target": "T3, HA-FKBP12 (Homo sapiens, UniProt P62942)", "T3 construct": "expressed in transfected cells; host or cells: HEK293T", "experiment": "HA-FKBP12 abundance by Western blotting in transfected HEK293T cells", "assay_type": "cell-based", "conditions": "for quantity of HA-FKBP12 and FLAG-DCAF1 in inhibitor-treated cells: HEK293T co-expressing HA-FKBP12 and FLAG-DCAF1", "source_text": "(A) Left, western blots showing concentration-dependent effects of YT47R (upper) and YT41R (lower) on FKBP12 abundance in HEK293T cells expressing HA-FBKP12 with or without co-expression of FLAG-DCAF1. Right, quantification of HA-FKBP12 abundance in the indicated experimental groups. (B) Left, western blots showing effects of YT47R versus YT47S (upper) and YT41R versus YT41S (lower) on FKBP12 abundance in HEK293T cells co-expressing HA-FBKP12 and FLAG-DCAF1. Right, quantification of HA-FKBP12 abundance in the indicated experimental groups. (C) Western blots showing effects of YT47R (left blots) and YT41R (right blots) on FKBP12 abundance in HEK293T cells co-expressing HA-FBKP12 and either FLAG-DCAF1-WT or FLAG-DCAF1-C1113A mutant. Quantification of HA-FKBP12 abundance in the indicated experimental groups is shown in the adjacent bar graphs. For (A-C), FKBP12 abundance was determined at 24 h post-treatment with compounds, and data are mean values±SEM for three independent experiments. Statistical significance was calculated with unpaired two-tailed Student's t-tests comparing YT41R/YT47R- and DMSO-treated cells. ***P<0.001, ****P<0.0001.\n(A) Left, western blots showing effects of proteasome (MG132) and Neddylation (MLN4924) inhibitors (1 h pre-treatment) on YT47R- and YT41R-dependent degradation of FKBP12 in HEK293T cells co-expressing HA-FBKP12 and FLAG-DCAF1. FKBP12 abundance was determined at 24 h post-treatment with YT47R or YT41R. Right, quantification of HA-FKBP12 abundance in the indicated experimental groups. (B) Left, western blots showing effects of the FKBP12 ligand SLF (20 μM) or DCAF1 ligand MY-11B (1 h pre-treatment with 20 μM SLF or 5 μM MY-11B) on YT47R- and YT41R-dependent degradation of FKBP12 in HEK293T cells co-expressing HA-FBKP12 and FLAG-DCAF1. FKBP12 abundance was determined at 24 h post-treatment with YT47R or YT41R. Right, quantification of HA-FKBP12 abundance in the indicated experimental groups. (C) Left, western blots showing effects of MY-11A or MY-11B (5 μM, 1 h pre-treatment) on YT47R- and YT41R-dependent degradation of FKBP12 in HEK293T cells co-expressing HA-FBKP12 and FLAG-DCAF1. FKBP12 abundance was determined at 24 h post-treatment with YT47R or YT41R. Right, quantification of HA-FKBP12 abundance in the indicated experimental groups. For (A-C), data are mean values±SEM for three-five independent experiments. Statistical significance was calculated with unpaired two-tailed Student's t-tests comparing YT41R/YT47R- and DMSO-treated cells. ****P<0.0001.\nFigure S3. Concentration-dependent degradation of FKBP12 by DCAF1-directed electrophilic PROTACs. Top, western blots showing concentration-dependent effects of YT47R and YT41R on FKBP12 abundance in HEK293T cells co-expressing HA-FBKP12 and FLAG-DCAF1. Data are mean values±SEM for four independent experiments. Statistical significance was calculated with unpaired two-tailed Student's t-tests comparing YT41R/YT47R- and DMSO-treated cells. *P<0.1, **P<0.01, ***P<0.001, ****P<0.0001.\nFigure S4. Time-dependent degradation of FKBP12 by DCAF1-directed electrophilic PROTACs. Top, western blots showing time-dependent effects of YT47R and YT41R (2 μM each) on FKBP12 abundance in HEK293T cells co-expressing HA-FBKP12 and FLAG-DCAF1. Data are mean values±SEM for four independent experiments. Statistical significance was calculated with unpaired two-tailed Student's t-tests comparing YT41R/YT47R- and DMSO-treated cells. ****P<0.0001.\nWe next treated HEK293T cells co-transfected with FLAG epitope-tagged full length DCAF1 (a.a.'s 1-1507) and HA (hemagglutinin) epitope-tagged FKBP12 with a concentration range of YT41R or YT47R and, after 24 h, measured HA-FKBP12 abundance by Western blotting."}}, "note": "pIC50: −log10 of the molar value. Where a SMILES comes first, the peptide text is derived from it. The star is where a group is joined. Cbz = O=C(OCc1ccccc1)*", "data": [{"smiles": "C=CC(=O)N1C[C@@H](c2ccc(Br)cc2)[C@@H]1C(=O)Nc1cccc2cccnc12", "note": "[MY-3B, (2S,3S)-1-acryloyl-3-(4-bromophenyl)-N-(87uinoline-8-yl) azetidine-2-carboxamide]", "values": [{"measurement": "reactivity with DCAF1_C1113", "setting": "DCAF1_C1113", "result": "weaker enantioselective interaction"}]}, {"smiles": "C=CC(=O)N1C[C@H](c2ccc(Br)cc2)[C@@H]1C(=O)Nc1cccc2cccnc12", "note": "[MY-1B, (2R,3S)-1-acryloyl-3-(4-bromophenyl)-N-(84uinoline-8-yl) azetidine-2-carboxamide]", "values": [{"measurement": "reactivity with DCAF1_C1113", "setting": "DCAF1_C1113", "result": "strongest reactivity"}, {"measurement": "effect on other quantified cysteines in DCAF1", "setting": "DCAF1_C1113; 20 μM", "result": "unaffected"}, {"measurement": "block of MY-11B labeling of recombinant DCAF1 by pre-treatment", "setting": "[1]; 2 h pre-treatment", "result": "blocked"}, {"measurement": "pIC50", "setting": "[1]; gel-ABPP, 2 h pre-treatment, 95% C.I.=13-38 μM, read-out: in vitro target engagement value (TE50) for labeling of DCAF1", "result": "~4.60"}]}, {"smiles": "CCC(C)(C)C(=O)C(=O)N1CCCC[C@H]1C(=O)O[C@H](CCc1ccc(OC)c(OC)c1)c1cccc(N)c1", "note": "[SLF, reference compound]", "values": [{"measurement": "effect on YT41R and YT47R-mediated degradation of HA-FKBP12", "setting": "HA-FKBP12; 20 μM, 1 h pre-treatment", "result": "blocked"}]}, {"smiles": "NS(=O)(=O)OC[C@@H]1C[C@@H](n2ccc3c(N[C@H]4CCc5ccccc54)ncnc32)C[C@@H]1O", "note": "[MLN4924, reference compound]", "values": [{"measurement": "quantity of HA-FKBP12 and FLAG-DCAF1 in inhibitor-treated cells", "setting": "HA-FKBP12", "result": "without causing alterations"}, {"measurement": "effect on YT41R/YT47R-mediated degradation of HA-FKBP12", "setting": "HA-FKBP12; NAE inhibitor, 1 h pre-treatment", "result": "impaired"}]}, {"smiles": "C=CC(=O)N1C[C@@H](c2ccc(Br)cc2)[C@H]1C(=O)Nc1cccc2cccnc12", "note": "[MY-1A, (2S,3R)-1-acryloyl-3-(4-bromophenyl)-N-(84uinoline-8-yl) azetidine-2-carboxamide]", "values": [{"measurement": "reactivity with DCAF1_C1113", "setting": "DCAF1_C1113", "result": "inactive"}, {"measurement": "block of MY-11B labeling of recombinant DCAF1 by pre-treatment", "setting": "[1]; 2 h pre-treatment", "result": "not"}]}, {"smiles": "C=CC(=O)C1C[C@@H](c2ccc(C(=O)NCCOCCOCCNC(=O)COc3cccc([C@@H](CCc4ccc(OC)c(OC)c4)OC(=O)[C@@H]4CCCCN4C(=O)C(=O)C(C)(C)CC)c3)cc2)[C@H]1C(=O)Nc1cccc2cccnc12", "note": "(stereo partly shown) [YT41S]", "values": [{"measurement": "inhibition of MY-11B probe reactivity with recombinant DCAF1", "setting": "[1]; 2 h, then MY-11B 25 μM 1 h, YT41S and YT47S at single concentration 100 μM", "result": "did not impair"}]}, {"smiles": "CC(C)C[C@@H](C=O)NC(=O)[C@H](CC(C)C)NC(=O)[C@H](CC(C)C)NC(=O)OCc1ccccc1", "note": "[MG132, reference compound] (Cbz-Leu-Leu-Leu-aldehyde)", "values": [{"measurement": "effect on YT41R/YT47R-mediated degradation of HA-FKBP12", "setting": "HA-FKBP12; 5 μM, 1 h pre-treatment followed by 24 h co-treatment with YT41R/YT47R", "result": "blocked"}, {"measurement": "quantity of HA-FKBP12 and FLAG-DCAF1 in inhibitor-treated cells", "setting": "HA-FKBP12", "result": "increased quantities"}]}]}
